Measurements as given in patent publication US10829520B2, “Beta-hairpin peptidomimetics” (POLYPHOR AG, priority 2015, dated 2020).
Where a SMILES comes first, the peptide text is derived from it. Bridges are numbered along the chain shown (N, C = ends). [ ]: non-standard residue; d: D form. Tle = CC(C)(C)[C@H](N)C(=O)O; dDab = NCC[C@@H](N)C(=O)O; Nle = CCCC[C@H](N)C(=O)O; Orn = NCCC[C@H](N)C(=O)O; Dab = NCC[C@H](N)C(=O)O; Dap = NC[C@H](N)C(=O)O

What was measured:
Assay type in all cases: cell-based
[1] = test system: Acinetobacter baumannii 872842; conditions: 872842
[2] = test system: Acinetobacter baumannii DSM 30008; conditions: DSM 30008
Method in brief: (§1)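 Inocula standardised to a 0.5 McFarland reference and diluted to about 10^6 CFU/mL in MH-II broth are incubated with two-fold peptide series containing 0.002% polysorbate 80. No visible growth after 18-20 hours at 35° C defines the MIC, in μg/mL.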

Escherichia coli 926415 = conditions: 926415
[3] = test system: Escherichia coli ATCC 25922; conditions: ATCC 25922
Method in brief: as §1

[4] = test system: Klebsiella pneumoniae 968733; conditions: 968733
[5] = test system: Klebsiella pneumoniae SSI #3010; conditions: SSI #3010
Method in brief: as §1

[6] = test system: Pseudomonas aeruginosa ATCC 27853; conditions: ATCC 27853
Method in brief: as §1

[7] = test system: human red blood cells (hRBC); test: Hemolysis of human red blood cells; conditions: red cells of human, 1 h, 100 μg/mL
Method in brief: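 Peptides at 100 μg/mL were incubated with PBS-washed fresh human erythrocytes (20% v/v, ~0.9×10^9 cells/mL final) for 1 h at 37° C. with shaking. Supernatant OD540 was read after 8-fold dilution; percent hemolysis was expressed relative to the 2.5% Triton X-100 full-lysis control, with PBS/0.001% acetic acid as 0%.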

Row | Structure (SMILES) | Acinetobacter baumannii 872842 MIC [1] [µg/mL] | Acinetobacter baumannii DSM 30008 MIC [2] [µg/mL] | Escherichia coli 926415 MIC (Escherichia coli 926415) [µg/mL] | Escherichia coli ATCC 25922 MIC [3] [µg/mL] | Klebsiella pneumoniae 968733 MIC [4] [µg/mL] | Klebsiella pneumoniae SSI #3010 MIC [5] [µg/mL] | Pseudomonas aeruginosa ATCC 27853 MIC [6] [µg/mL] | Hemolysis at 100 μg/mL [7] [%]
1 | CCCC[C@@H]1NC(=O)[C@@H]2CCCN2C(=O)[C@H]2CCCN2C(=O)[C@H](CO)NC(=O)[C@H](C)NC(=O)[C@H](C(C)(C)C)NC(=O)[C@@H](NC(=O)[C@H](Cc2c[nH]c3ccccc23)NC(C)=O)CSSC[C@@H](C(=O)N[C@@H](CCCN)C(=O)N[C@@H](CCN)C(=O)N[C@H]2CCNC(=O)[C@H]([C@@H](C)O)NC(=O)[C@H](CCN)NC(=O)[C@H](CCN)NC(=O)[C@H](CC(C)C)NC(=O)[C@@H](Cc3ccccc3)NC(=O)[C@H](CCN)NC2=O)NC(=O)[C@H](Cc2ccc(O)cc2)NC(=O)[C@H](CN)NC1=O [Ex. 46] (Ac-WC[Tle]AS[dP]P[Nle][Dap]YC[Orn][Dab][Dab][Dab][dF]L[Dab][Dab]T; disulfide 2-11; lactam 14-C) | 0.5 | 0.25 | 0.5 | 0.125 | 2 | 0.25 | 2 | <1
2 | CCCC[C@@H]1NC(=O)[C@@H]2CCCN2C(=O)[C@H]2CCCN2C(=O)[C@H](CO)NC(=O)[C@H]([C@@H](C)O)NC(=O)[C@H](C(C)(C)C)NC(=O)[C@@H](NC(=O)[C@H](Cc2c[nH]c3ccccc23)NC(C)=O)CSSC[C@@H](C(=O)N[C@@H](CCCN)C(=O)N[C@@H](CCN)C(=O)N[C@H]2CCNC(=O)[C@H]([C@@H](C)O)NC(=O)[C@H](CCN)NC(=O)[C@H](CCN)NC(=O)[C@H](CC(C)C)NC(=O)[C@@H](Cc3ccccc3)NC(=O)[C@H](CCN)NC2=O)NC(=O)[C@H](Cc2ccc(O)cc2)NC(=O)[C@H](CO)NC1=O [Ex. 47] (Ac-WC[Tle]TS[dP]P[Nle]SYC[Orn][Dab][Dab][Dab][dF]L[Dab][Dab]T; disulfide 2-11; lactam 14-C) | 0.5 | 0.25 | 0.5 | 0.25 | 1 | 0.5 | 0.5 | 1
3 | CCCC[C@@H]1NC(=O)[C@@H]2CCCN2C(=O)[C@H]2CCCN2C(=O)[C@H](CO)NC(=O)[C@H](C)NC(=O)[C@H](C(C)(C)C)NC(=O)[C@@H](NC(=O)[C@H](Cc2c[nH]c3ccccc23)NC(C)=O)CSSC[C@@H](C(=O)N[C@@H](CCCN)C(=O)N[C@@H](CCN)C(=O)N[C@H]2CCNC(=O)[C@H]([C@@H](C)O)NC(=O)[C@H](CCN)NC(=O)[C@H](CCN)NC(=O)[C@H](CC(C)C)NC(=O)[C@@H](Cc3ccccc3)NC(=O)[C@H](CCN)NC2=O)NC(=O)[C@H](Cc2ccc(O)cc2)NC(=O)[C@H](CO)NC1=O [Ex. 48] (Ac-WC[Tle]AS[dP]P[Nle]SYC[Orn][Dab][Dab][Dab][dF]L[Dab][Dab]T; disulfide 2-11; lactam 14-C) | 0.5 | 0.5 | 0.25 | 0.125 | 1 | 0.25 | 1 | 2
4 | CCCC[C@@H]1NC(=O)[C@@H]2CCCN2C(=O)[C@H]2CCCN2C(=O)[C@H](CO)NC(=O)[C@H](C)NC(=O)[C@H](C(C)(C)C)NC(=O)[C@@H](NC(=O)[C@H](Cc2c[nH]c3ccccc23)NC(C)=O)CSSC[C@@H](C(=O)N[C@@H](CCCN)C(=O)N[C@H](CCN)C(=O)N[C@H]2CCNC(=O)[C@H]([C@@H](C)O)NC(=O)[C@H](CCN)NC(=O)[C@H](CCN)NC(=O)[C@H](CC(C)C)NC(=O)[C@@H](Cc3ccccc3)NC(=O)[C@H](CCN)NC2=O)NC(=O)[C@H](Cc2ccc(O)cc2)NC(=O)[C@H](CO)NC1=O [Ex. 49] (Ac-WC[Tle]AS[dP]P[Nle]SYC[Orn][dDab][Dab][Dab][dF]L[Dab][Dab]T; disulfide 2-11; lactam 14-C) | 1 | 0.25 | 0.5 | 0.25 | 1 | 0.5 | 1 | <1
5 | CCCC[C@@H]1NC(=O)[C@@H]2CCCN2C(=O)[C@H]2CCCN2C(=O)[C@H](CO)NC(=O)[C@H](C)NC(=O)[C@H](C(C)(C)C)NC(=O)[C@@H](NC(=O)[C@H](Cc2c[nH]c3ccccc23)NC(C)=O)CSSC[C@@H](C(=O)N[C@@H](CCN)C(=O)N[C@@H](CN)C(=O)N[C@H]2CCNC(=O)[C@H]([C@@H](C)O)NC(=O)[C@H](CCN)NC(=O)[C@H](CCN)NC(=O)[C@H](CC(C)C)NC(=O)[C@@H](Cc3ccccc3)NC(=O)[C@H](CCN)NC2=O)NC(=O)[C@H](Cc2ccc(O)cc2)NC(=O)[C@H](CO)NC1=O [Ex. 50] (Ac-WC[Tle]AS[dP]P[Nle]SYC[Dab][Dap][Dab][Dab][dF]L[Dab][Dab]T; disulfide 2-11; lactam 14-C) | 0.5 | 0.25 | 0.5 | 0.25 | 2 | 0.25 | 1 | 1
6 | CCCC[C@@H]1NC(=O)[C@@H]2CCCN2C(=O)[C@H]2CCCN2C(=O)[C@H](CO)NC(=O)[C@H](C)NC(=O)[C@H](C(C)(C)C)NC(=O)[C@@H](NC(=O)[C@H](Cc2ccccc2)NC(C)=O)CSSC[C@@H](C(=O)N[C@@H](CCCN)C(=O)N[C@@H](CCN)C(=O)N[C@H]2CCNC(=O)[C@H]([C@@H](C)O)NC(=O)[C@H](CCN)NC(=O)[C@H](CCN)NC(=O)[C@H](CC(C)C)NC(=O)[C@@H](Cc3ccccc3)NC(=O)[C@H](CCN)NC2=O)NC(=O)[C@H](Cc2ccc(O)cc2)NC(=O)[C@H](CO)NC1=O [Ex. 51] (Ac-FC[Tle]AS[dP]P[Nle]SYC[Orn][Dab][Dab][Dab][dF]L[Dab][Dab]T; disulfide 2-11; lactam 14-C) | 4 | 0.5 | 2 | 0.25 | 4 | 0.5 | 1 | <1
7 | CCCC[C@@H]1NC(=O)[C@@H]2CCCN2C(=O)[C@H]2CCCN2C(=O)[C@H](C(C)C)NC(=O)[C@H](C)NC(=O)[C@H](Cc2ccc(O)cc2)NC(=O)[C@@H](NC(=O)[C@H](Cc2c[nH]c3ccccc23)NC(C)=O)CSSC[C@@H](C(=O)N[C@@H](CCCN)C(=O)N[C@@H](CCN)C(=O)N[C@H]2CCNC(=O)[C@H]([C@@H](C)O)NC(=O)[C@H](CCN)NC(=O)[C@H](CCN)NC(=O)[C@H](CC(C)C)NC(=O)[C@@H](Cc3ccccc3)NC(=O)[C@H](CCN)NC2=O)NC(=O)[C@H](Cc2ccc(O)cc2)NC(=O)[C@H](CO)NC1=O [Ex. 52] (Ac-WCYAV[dP]P[Nle]SYC[Orn][Dab][Dab][Dab][dF]L[Dab][Dab]T; disulfide 2-11; lactam 14-C) | 4 | 0.5 | 3 | 0.5 | 2 | 0.5 | 4 | 2
8 | CCCC[C@@H]1NC(=O)[C@@H]2CCCN2C(=O)[C@@H](CCN)NC(=O)[C@H](CO)NC(=O)[C@H](C)NC(=O)[C@H](C(C)(C)C)NC(=O)[C@@H](NC(=O)[C@H](Cc2c[nH]c3ccccc23)NC(C)=O)CSSC[C@@H](C(=O)N[C@@H](CCCN)C(=O)N[C@@H](CCN)C(=O)N[C@H]2CCNC(=O)[C@H]([C@@H](C)O)NC(=O)[C@H](CCN)NC(=O)[C@H](CCN)NC(=O)[C@H](CC(C)C)NC(=O)[C@@H](Cc3ccccc3)NC(=O)[C@H](CCN)NC2=O)NC(=O)[C@H](Cc2ccc(O)cc2)NC(=O)[C@H](CO)NC1=O [Ex. 53] (Ac-WC[Tle]AS[dDab]P[Nle]SYC[Orn][Dab][Dab][Dab][dF]L[Dab][Dab]T; disulfide 2-11; lactam 14-C) | 2 | 0.25 | 1 | 0.25 | 8 | 0.5 | 2 | 1
